Assay results as given in US20110294737A1, “TERMINALLY-DIFFERENTIATED ANUCLEATE PLATELET PROGENY GENERATION” (priority 2008, published 2011).
“Also recorded” adds a separate entry of the source.

Columns and labels:
[1] = tested on: endogenous reverse transcriptase (RT) activity in platelets; assay: Reverse transcriptase activity assay in platelet lysates (reverse transcription of MS2 phage RNA); assay type: biochemical, human; conditions: platelet lysates incubated with compound at 37° C. for 120 minutes; nevirapine 100, 500, 750 μM; 9-cis retinoic acid 0.1, 1, 10 μM
Experimental: Reverse Transcriptase Activity Assay (FIGS. 10A-C and FIGS. 11A-C). The reverse transcriptase (RT) activity assay was performed as previously described^22 with minor modifications. […] MS2 phage RNA was subsequently added to the lysates and reverse transcription of MS2 phage RNA by platelet lysates or a commercial RT (Thermoscript, Invitrogen, Eugene, Oreg.) was determined.

[2] = tested on: human platelets; assay: Platelet morphology: formation of extensions with new cell bodies (progeny) in suspension-cultured platelets; assay type: cell-based; conditions: platelets 1×10^5 per mm^3 cultured in suspension for 6 hours; nevirapine 750 μM; 9-cis retinoic acid 1 and 10 μM
Experimental: Platelet Isolation and Culture. Whole blood was centrifuged at 150×g for 20 minutes to obtain platelet-rich plasma (PRP). Residual leukocytes were removed from the PRP by CD45+ bead selection as previously described^1, 6. The negatively selected platelets were resuspended in serum-free M199 culture medium at 37° C. in a humidified 5% CO2 atmosphere. For select studies, platelets were resuspended in fresh human plasma. […] Unless otherwise indicated, the washed platelets were cultured in suspension using round-bottom polypropylene tubes (Becton Dickinson, Franklin Lakes, N.J.). Platelets were suspended at 100,000/μl.
Platelet Morphology and Protein Expression. Freshly-isolated or aged platelets were either fixed immediately to assess baseline morphology, or after 6 hours of suspension culture as described above.
For studies that used fixed platelets, paraformaldehyde (4%) was added directly to the suspension culture as previously described^1, 6, 26 in order to maintain the native morphology of the cells. The fixed platelets (10,000 total for each sample) were subsequently layered onto coverslips coated with Vectabond™ (Vector Laboratories, Burlingame, Calif.) using a cytospin centrifuge (Shandon Cytospin, Thermo Fisher Scientific, Waltham, Mass.). To determine the number of platelets with extensions and distinct cell bodies, fixed cells were counterstained with Alexa Fluor® 488 phalloidin (A12379; Invitrogen, Eugene, Oreg.), a high-affinity probe for F-actin, and/or an Alexa Fluor® 555 (W32464; Invitrogen) conjugate of wheat germ agglutinin (WGA). Three random fields were captured from each independent experiment and at least 500 total cells, which encompassed individual platelets with two or more distinct cell bodies, were counted (FIG. 1H and FIG. 1I).

[3] = tested on: human platelets; assay: Surface P-selectin expression of cultured platelets with new cell bodies after agonist activation (immunostaining); assay type: cell-based; conditions: after 6 hours culture; ADP (2 μM) or thrombin (0.005 U/ml) for 1 minute
Description: For protein localization studies by immunocytochemistry (ICC), fixed cells were stained with antibodies directed against αIIbβ3 and Annexin V (ab34407; Abeam, Cambridge, Mass.), P-selectin (sc-6941; Santa Cruz Biotechnology, Santa Cruz, Calif.), β-tubulin (T-5293; Sigma), or mitofilin (MSM02; MitoSciences, Eugene, Oreg.). Specificity of the staining was confirmed for each antibody with isotype-matched nonimmune IgG. The cells were counterstained with either Alexa Fluor® 488 phalloidin or Alexa Fluor® 555 WGA conjugate as described in the previous paragraph. To assess mitochondrial function, use was made of MitoTracker® Red CM-H2XRos (M7513; Invitrogen), a reduced probe that fluoresces when it enters actively respiring mitochondria. For these studies, MitoTracker® (1 μM) was incubated with the live platelets one hour before the end of the experiment.

Compound | RT activity in platelets [1] | number of newly-formed cell bodies extending from cultured platelets / progeny formation [2] | surface P-selectin expression in platelets that developed new cell bodies [3]
CC1=C(/C=C/C(C)=C\C=C\C(C)=C\C(=O)O)C(C)(C)CCC1 [9-cis retinoic acid] | inhibited |  | 
thrombopoietin: key regulator of bone marrow-dependent thrombopoiesis |  | no effect | 
cytocholasin D |  | inhibited | 
Nc1ncnc2c1ncn2[C@@H]1O[C@H](COP(=O)(O)OP(=O)(O)O)[C@@H](O)[C@H]1O [ADP] |  |  | markedly increased
Cc1ccnc2c1NC(=O)c1cccnc1N2C1CC1 [nevirapine] | inhibited |  | 
thrombin |  | did not develop new cells bodies; also recorded: blocks | markedly increased
